Test results reported in paper PMC7614683, “A small molecule PI3Kα activator for cardioprotection and neuroregeneration” (Nature, 2023).
Where two headings read alike, the source gives them in different places.

Key:
Assay in all cases: SelectScreen Z-LYTE kinase activity assay (SI Table 6)
Type in all cases: biochemical
[1] = molecular target: T1, protein kinases of the Z-LYTE panel (Homo sapiens, UniProt O00418)
T1 sequence (O00418 1-725): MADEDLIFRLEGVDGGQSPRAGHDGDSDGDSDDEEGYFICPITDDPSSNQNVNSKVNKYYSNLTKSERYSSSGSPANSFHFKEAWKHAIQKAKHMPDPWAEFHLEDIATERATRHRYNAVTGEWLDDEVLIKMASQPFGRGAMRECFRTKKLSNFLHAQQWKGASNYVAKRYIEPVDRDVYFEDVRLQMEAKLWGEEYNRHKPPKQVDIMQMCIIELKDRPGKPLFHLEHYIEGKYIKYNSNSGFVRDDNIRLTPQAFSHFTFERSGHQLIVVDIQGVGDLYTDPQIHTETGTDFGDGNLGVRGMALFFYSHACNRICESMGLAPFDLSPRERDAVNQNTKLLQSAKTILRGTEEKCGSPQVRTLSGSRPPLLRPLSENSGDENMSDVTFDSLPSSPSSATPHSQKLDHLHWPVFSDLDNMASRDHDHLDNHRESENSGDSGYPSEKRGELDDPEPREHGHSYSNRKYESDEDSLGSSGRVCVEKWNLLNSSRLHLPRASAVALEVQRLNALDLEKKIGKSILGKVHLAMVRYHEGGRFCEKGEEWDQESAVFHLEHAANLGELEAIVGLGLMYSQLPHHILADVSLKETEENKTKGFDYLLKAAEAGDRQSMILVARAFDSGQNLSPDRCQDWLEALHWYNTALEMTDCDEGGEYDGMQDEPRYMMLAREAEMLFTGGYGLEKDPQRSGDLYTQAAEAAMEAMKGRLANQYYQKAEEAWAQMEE
Procedure, shortened: (§1)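 Single-point profiling, 1 μM 1938; LanthaScreen binding, Adapta or Z-LYTE read-outs; 133 protein + 7 lipid kinases.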

[2] = molecular target: protein kinases of the Z-LYTE panel (Homo sapiens, UniProt P00533)
Sequence of protein kinases of the Z-LYTE panel (Homo sapiens, UniProt P00533) (P00533 25-1210): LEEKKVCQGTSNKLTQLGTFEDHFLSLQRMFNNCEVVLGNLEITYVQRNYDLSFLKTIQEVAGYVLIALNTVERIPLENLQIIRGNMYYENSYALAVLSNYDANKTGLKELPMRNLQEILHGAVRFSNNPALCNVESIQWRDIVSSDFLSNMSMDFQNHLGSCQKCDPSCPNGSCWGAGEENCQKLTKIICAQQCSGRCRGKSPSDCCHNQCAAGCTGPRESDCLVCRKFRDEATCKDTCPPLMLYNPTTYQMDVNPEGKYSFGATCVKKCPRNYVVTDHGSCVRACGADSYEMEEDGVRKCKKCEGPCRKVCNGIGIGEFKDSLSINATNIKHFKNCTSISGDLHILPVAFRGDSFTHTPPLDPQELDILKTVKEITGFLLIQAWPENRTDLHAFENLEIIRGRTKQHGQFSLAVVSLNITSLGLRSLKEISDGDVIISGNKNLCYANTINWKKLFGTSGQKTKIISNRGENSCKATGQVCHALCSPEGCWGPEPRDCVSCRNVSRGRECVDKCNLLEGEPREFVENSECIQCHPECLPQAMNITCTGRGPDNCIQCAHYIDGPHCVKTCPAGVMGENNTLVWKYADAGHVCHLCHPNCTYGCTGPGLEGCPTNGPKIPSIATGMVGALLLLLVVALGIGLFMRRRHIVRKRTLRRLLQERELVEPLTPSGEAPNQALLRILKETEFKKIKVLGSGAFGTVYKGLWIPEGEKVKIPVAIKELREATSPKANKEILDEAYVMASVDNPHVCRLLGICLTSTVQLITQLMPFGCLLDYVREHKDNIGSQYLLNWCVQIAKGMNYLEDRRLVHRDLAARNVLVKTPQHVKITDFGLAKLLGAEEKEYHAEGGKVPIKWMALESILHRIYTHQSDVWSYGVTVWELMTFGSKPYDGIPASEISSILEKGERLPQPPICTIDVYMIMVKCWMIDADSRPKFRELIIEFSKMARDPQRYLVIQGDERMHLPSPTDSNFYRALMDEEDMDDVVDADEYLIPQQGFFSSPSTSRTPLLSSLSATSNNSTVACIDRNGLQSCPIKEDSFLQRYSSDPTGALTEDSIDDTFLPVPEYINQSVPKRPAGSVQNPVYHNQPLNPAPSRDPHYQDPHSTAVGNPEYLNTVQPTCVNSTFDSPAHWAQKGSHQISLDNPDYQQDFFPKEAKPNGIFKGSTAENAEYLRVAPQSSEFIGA
Procedure, shortened: as §1

[3] = molecular target: protein kinases of the Z-LYTE panel (Homo sapiens, UniProt P11362)
Sequence of protein kinases of the Z-LYTE panel (Homo sapiens, UniProt P11362) (P11362 22-822): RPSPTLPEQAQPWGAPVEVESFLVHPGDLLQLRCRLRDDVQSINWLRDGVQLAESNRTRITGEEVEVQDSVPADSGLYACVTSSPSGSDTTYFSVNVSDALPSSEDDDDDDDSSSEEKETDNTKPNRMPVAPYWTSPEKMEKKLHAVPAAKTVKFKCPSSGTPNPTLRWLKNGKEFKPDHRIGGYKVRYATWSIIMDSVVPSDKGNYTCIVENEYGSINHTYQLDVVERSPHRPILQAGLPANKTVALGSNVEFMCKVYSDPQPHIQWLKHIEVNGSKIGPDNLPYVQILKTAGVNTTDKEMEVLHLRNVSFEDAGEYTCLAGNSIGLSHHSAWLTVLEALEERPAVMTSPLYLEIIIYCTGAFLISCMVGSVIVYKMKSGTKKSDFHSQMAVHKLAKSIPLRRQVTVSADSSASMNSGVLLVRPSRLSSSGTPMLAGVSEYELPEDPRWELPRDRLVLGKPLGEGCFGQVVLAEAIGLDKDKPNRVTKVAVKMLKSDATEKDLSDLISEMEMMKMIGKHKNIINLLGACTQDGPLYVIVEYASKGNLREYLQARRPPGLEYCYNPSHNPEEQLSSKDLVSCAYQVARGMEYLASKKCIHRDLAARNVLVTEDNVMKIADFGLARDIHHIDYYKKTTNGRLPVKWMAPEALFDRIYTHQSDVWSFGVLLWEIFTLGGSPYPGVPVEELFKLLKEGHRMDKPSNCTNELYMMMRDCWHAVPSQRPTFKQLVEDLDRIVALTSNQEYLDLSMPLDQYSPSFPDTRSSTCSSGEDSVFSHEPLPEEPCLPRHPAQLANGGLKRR
Procedure, shortened: as §1

[4] = molecular target: protein kinases of the Z-LYTE panel (Homo sapiens, UniProt P23443)
Sequence of protein kinases of the Z-LYTE panel (Homo sapiens, UniProt P23443) (P23443 whole entry): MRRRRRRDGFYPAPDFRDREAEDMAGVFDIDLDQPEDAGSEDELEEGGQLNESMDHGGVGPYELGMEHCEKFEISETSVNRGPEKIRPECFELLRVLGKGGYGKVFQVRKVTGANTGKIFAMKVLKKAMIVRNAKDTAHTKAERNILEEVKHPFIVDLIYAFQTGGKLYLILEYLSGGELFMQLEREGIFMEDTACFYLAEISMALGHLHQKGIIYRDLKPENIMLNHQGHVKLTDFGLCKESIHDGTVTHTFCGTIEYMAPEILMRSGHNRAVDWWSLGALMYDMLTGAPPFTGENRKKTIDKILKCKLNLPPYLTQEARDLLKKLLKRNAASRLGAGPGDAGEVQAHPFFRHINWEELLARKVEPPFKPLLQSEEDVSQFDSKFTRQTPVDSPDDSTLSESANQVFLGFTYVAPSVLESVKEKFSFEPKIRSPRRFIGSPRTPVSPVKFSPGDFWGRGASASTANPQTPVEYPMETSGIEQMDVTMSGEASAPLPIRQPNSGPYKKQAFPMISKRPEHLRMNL
Procedure, shortened: as §1

[5] = molecular target: T2, protein kinases of the Z-LYTE panel (Homo sapiens, UniProt P30530)
T2 sequence (P30530 26-894): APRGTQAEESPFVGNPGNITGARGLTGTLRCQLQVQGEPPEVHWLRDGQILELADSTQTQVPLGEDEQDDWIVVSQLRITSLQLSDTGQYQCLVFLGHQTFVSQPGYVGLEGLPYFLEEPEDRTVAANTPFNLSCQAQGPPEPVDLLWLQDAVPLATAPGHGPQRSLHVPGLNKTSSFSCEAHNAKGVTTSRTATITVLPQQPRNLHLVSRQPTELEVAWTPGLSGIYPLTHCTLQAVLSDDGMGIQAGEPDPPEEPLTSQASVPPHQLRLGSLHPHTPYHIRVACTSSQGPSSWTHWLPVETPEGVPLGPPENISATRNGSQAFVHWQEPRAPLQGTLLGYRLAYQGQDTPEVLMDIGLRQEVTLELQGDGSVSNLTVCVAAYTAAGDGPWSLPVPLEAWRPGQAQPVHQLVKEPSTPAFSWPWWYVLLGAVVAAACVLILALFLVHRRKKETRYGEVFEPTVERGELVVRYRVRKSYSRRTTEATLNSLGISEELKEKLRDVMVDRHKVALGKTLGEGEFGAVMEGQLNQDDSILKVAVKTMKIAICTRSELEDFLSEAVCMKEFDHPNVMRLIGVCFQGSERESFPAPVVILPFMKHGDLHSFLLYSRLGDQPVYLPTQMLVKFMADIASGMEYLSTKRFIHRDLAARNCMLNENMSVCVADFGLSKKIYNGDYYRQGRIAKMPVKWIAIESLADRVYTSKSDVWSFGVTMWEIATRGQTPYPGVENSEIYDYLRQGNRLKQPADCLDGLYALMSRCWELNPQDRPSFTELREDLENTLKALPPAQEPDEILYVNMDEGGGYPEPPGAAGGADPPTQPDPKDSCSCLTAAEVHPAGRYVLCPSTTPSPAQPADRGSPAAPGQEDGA
Procedure, shortened: as §1

[6] = molecular target: protein kinases of the Z-LYTE panel (Homo sapiens, UniProt Q13554)
Sequence of protein kinases of the Z-LYTE panel (Homo sapiens, UniProt Q13554) (Q13554 whole entry): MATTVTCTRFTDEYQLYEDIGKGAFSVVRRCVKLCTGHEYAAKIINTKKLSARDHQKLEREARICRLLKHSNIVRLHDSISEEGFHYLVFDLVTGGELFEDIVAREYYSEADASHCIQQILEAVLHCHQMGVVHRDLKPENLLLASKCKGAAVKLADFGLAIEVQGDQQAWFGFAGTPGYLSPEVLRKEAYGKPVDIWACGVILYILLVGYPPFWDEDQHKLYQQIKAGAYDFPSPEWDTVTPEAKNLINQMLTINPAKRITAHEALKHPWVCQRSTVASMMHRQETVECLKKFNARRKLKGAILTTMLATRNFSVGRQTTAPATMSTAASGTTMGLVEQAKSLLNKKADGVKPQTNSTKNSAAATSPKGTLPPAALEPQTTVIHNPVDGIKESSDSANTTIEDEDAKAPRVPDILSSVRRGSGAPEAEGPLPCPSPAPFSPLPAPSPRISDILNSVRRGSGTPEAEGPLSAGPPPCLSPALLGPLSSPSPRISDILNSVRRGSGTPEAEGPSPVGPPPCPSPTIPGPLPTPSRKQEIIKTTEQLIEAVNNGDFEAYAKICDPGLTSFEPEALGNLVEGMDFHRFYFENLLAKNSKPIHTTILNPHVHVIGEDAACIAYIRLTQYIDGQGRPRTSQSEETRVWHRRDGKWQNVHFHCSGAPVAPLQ
Procedure, shortened: as §1

CCN1CCN(c2ccc(Nc3cc(Nc4cccc5c4N(C(C)=O)CC5)ccn3)cc2)CC1 [Compound 1938]
inhibition at 1 µM ([1]; read-out: % Inhibition Point 1): -0.0213% | inhibition at 1 µM ([1]; read-out: % Inhibition Point 2): 0.399% | inhibition at 1 µM ([1]; read-out: % Inhibition mean): 0.189% | inhibition at 1 µM ([2]; read-out: % Inhibition Point 1): 18% | inhibition at 1 µM ([2]; read-out: % Inhibition Point 2): 17% | inhibition at 1 µM ([2]; read-out: % Inhibition mean): 18% | inhibition at 1 µM ([3]; read-out: % Inhibition Point 1): 25% | inhibition at 1 µM ([3]; read-out: % Inhibition Point 2): 23% | inhibition at 1 µM ([3]; read-out: % Inhibition mean): 24% | inhibition at 1 µM ([4]; read-out: % Inhibition Point 1): 2.67% | inhibition at 1 µM ([4]; read-out: % Inhibition Point 2): -0.609% | inhibition at 1 µM ([4]; read-out: % Inhibition mean): 1% | inhibition at 1 µM ([5]; read-out: % Inhibition Point 1): 7% | inhibition at 1 µM ([5]; read-out: % Inhibition Point 2): 8% | inhibition at 1 µM ([5]; read-out: % Inhibition mean): 7.4% | inhibition at 1 µM ([6]; read-out: % Inhibition Point 1): 8% | inhibition at 1 µM ([6]; read-out: % Inhibition Point 2): 6% | inhibition at 1 µM ([6]; read-out: % Inhibition mean): 7%
